According to patent US10508088B2, “Methods using HDAC11 inhibitors” (FORMA Therapeutics, Inc., priority 2016, dated 2019):

Assays:
HEL 92.1.7 cells = assay: Cell proliferation assay (CCK8); type: cell-based; conditions: HEL 92.1.7, 48 h
Protocol: (§1) This example describes inhibition of in vitro cell proliferation with exemplary HDAC11 inhibitors. The effects of selective HDAC11 inhibitors on cell proliferation were measured in cell lines containing the MPN-associated mutations MPL W515L (Ba/F3 MPL W515L) and JAK2 V617F (Ba/F3 JAK2 V617F, HEL 92.1.7, SET-2). HEL 92.1.7 and SET-2 cells were purchased from the ATCC and DSMZ, respectively. Ba/F3 cells overexpressing either MPLW515L or JAK2V617F, which were cytokine independent, were generated by transforming Ba/F3 cells with retroviruses overexpressing either MPL W515L or JAK2V617F. For survival assays, cells were seeded in 96-well plates at the density of 0.1 million/ml with addition of indicated compounds and incubated at 37° C. for 48 h. CCK8 solution (Dojindo, Rockville, Md.) was added and absorbance at 450 nm was measured after 3 hours of incubation. Readings were normalized to dimethylsulfoxide (DMSO)-treated wells.

SET-2 cells = assay: Cell proliferation assay (CCK8); type: cell-based; conditions: SET-2 (FIG. 4 legend)
Protocol: as §1

N#CC[C@H](C1CCCC1)n1cc(-c2ncnc3[nH]ccc23)cn1 [ruxolitinib, reference compound]
growth of the HEL 92.1.7 cell line (HEL 92.1.7 cells): inhibited
growth of SET-2 cell line (SET-2 cells): inhibited
